assay: in vitro; details: human, hela cells, % viability

| Structure (SMILES) | viability at 28.5 h, 10 µM |
| --- | --- |
| OC1CC(c2cc(F)ccc2F)N(CCc2ccncc2)C1 (stereo not drawn) [CBK305106] | 87.2% |
| Cc1cccc(-c2nc(CN(C)CC(=O)NC(C)C)no2)c1 [CBK305109] | 115% |
| COCCc1nsc(N2CCCC(c3nccs3)C2)n1 (stereo not drawn) [CBK305110] | 92% |
| CCC(CC)n1nc(C(=O)NC2(C#N)CCSC2)cc1C (stereo not drawn) [CBK305111] | 103% |
| O=C(CN1CCCC1Cn1cncn1)NCCc1ccsc1 (stereo not drawn) [CBK305113] | 85.2% |
| CCOC(=O)c1cnn(C2CCCN(Cc3cccn3C)C2)c1 (stereo not drawn) [CBK305114] | 84.3% |
| NC(=O)c1cccc(CNC2CCCN(c3cccnn3)C2)c1 (stereo not drawn) [CBK305115] | 103% |
| COCc1nc2n(n1)CC(NC1CCCc3sccc31)CC2 (stereo not drawn) [CBK305116] | 90.1% |
| CC(C)c1nc(NCc2nnc3n2CCC3)nc(N(C)C)n1 [CBK305117] | 99.5% |
| CCc1nc(C(C)NCC(=O)Nc2cc(C)nn2C)cs1 (stereo not drawn) [CBK305118] | 97.8% |
| Cc1nc(CNCc2c(C(C)C)nn(C)c2N(C)C)cs1 [CBK305119] | 109% |
| Cc1noc(C2COCCN2C(=O)c2cc(Cl)cn2C)n1 (stereo not drawn) [CBK305120] | 98.8% |
| CCOC(=O)c1cnn(C2CCCN(Cc3cccs3)C2)c1 (stereo not drawn) [CBK305121] | 99.5% |
| Cc1nnc(CN(C)C2CCN(CCc3cccs3)C2)n1C (stereo not drawn) [CBK305126] | 97.8% |
| CC(NCC(=O)NC1(C#N)CCCCC1)C(C)n1cccn1 (stereo not drawn) [CBK305129] | 91.4% |
| COCCn1c(SC2CCN(C)C2=O)nc2ccccc21 (stereo not drawn) [CBK305131] | 97.9% |
| CC(C)c1nn(C)c(N(C)C)c1CNCCc1cnn(C)c1 [CBK305135] | 108% |
| Cc1cccc(CCNC(=O)N2CCC(Cc3cnn(C)c3)C2)c1 (stereo not drawn) [CBK305137] | 110% |
| COc1ccc(Br)c(C(=O)N(C)Cc2cnn(C)c2)c1 [CBK305142] | 97.7% |
| CC(=O)c1cccc(NC(=O)CN2CCCC2c2cccs2)c1 (stereo not drawn) [CBK305143] | 109% |
| CCN(C(C)COC)S(=O)(=O)c1cccc(Cl)c1Cl (stereo not drawn) [CBK305146] | 98.4% |

| Structure (SMILES) | viability at 28.5 h, 10 µM |
| --- | --- |
| CCCCCCN(CCN1CCOCC1)C(=O)Nc1cc(C)on1 [CBK305147] | 84.7% |
| O=C(NCCN1CCCCC1)C1CC(=O)N(c2ccccc2F)C1 (stereo not drawn) [CBK305148] | 86.8% |
| COc1ccnc(N2CCCN(Cc3ncc(Cl)n3C)CC2)n1 [CBK305152] | 111% |
| Cn1cc(CNCC2CCN(CCO)CC2)c(-c2cccnc2)n1 [CBK305153] | 91.2% |
| O=C(CC1OCCc2ccsc21)N1CCCC(n2cccn2)C1 (stereo not drawn) [CBK305154] | 96.7% |
| CC(C(=O)NC1(C#N)CCCCC1)N1CCOC(CN(C)C)C1 (stereo not drawn) [CBK305155] | 88.6% |
| COCCn1cc(C(=O)N2CCOC3CCCC32)c2ccccc21 (stereo not drawn) [CBK305156] | 86.1% |
| CCC(CCO)CNc1ncnc2ccc(S(C)(=O)=O)cc12 (stereo not drawn) [CBK305157] | 84% |
| CC(=O)Nc1cccc(C(=O)N2CCN(CC3CCCO3)CC2)c1 (stereo not drawn) [CBK305158] | 96% |
| N#Cc1ccc(N2CCCC(N3CCNC3=O)C2)c(C(F)(F)F)c1 (stereo not drawn) [CBK305162] | 84.9% |
| CC(Sc1nc2ccc(Cl)cc2o1)C(=O)N1CCOCC1 (stereo not drawn) [CBK305164] | 92.1% |
| COCC(O)CN(C)c1nc(-c2ccncc2)nc2ccccc12 (stereo not drawn) [CBK305170] | 78.7% |
| Cc1nnc(C(C)N2CCN(Cc3noc(C(C)(C)C)n3)CC2)o1 (stereo not drawn) [CBK305171] | 85.7% |
| CCC(NC(=O)Nc1ccc(N2CCOCC2)nc1)c1cnn(CC)c1 (stereo not drawn) [CBK305172] | 90.6% |
| Cn1cc(CNS(=O)(=O)c2ccc(F)c(Br)c2)cn1 [CBK305174] | 92.5% |
| COCCOCC(C)NC(=O)COc1nn(C)c2nc(C)cc(C)c12 (stereo not drawn) [CBK305177] | 105% |
| CS(=O)(=O)CCOCCNC(=O)c1cc(Br)cnc1Cl [CBK305178] | 86.4% |
| CCc1nc(C2CCCN2c2ncc(C#N)cc2Cl)no1 (stereo not drawn) [CBK305183] | 91.1% |
| c1csc(N2CCN(c3nccn4cnnc34)CC2)n1 [CBK305185] | 103% |
| CCNS(=O)(=O)c1ccc2c(c1)N(Cc1nc(C)c(C)o1)CC2 [CBK305189] | 51.5% |
| Cc1ccnc(NCC2CCN(c3cc(=O)n4oc(C)cc4n3)C2)c1 (stereo not drawn) [CBK305191] | 84.6% |

| Structure (SMILES) | viability at 28.5 h, 10 µM |
| --- | --- |
| CC(=O)c1cccc(NC(=O)N(CCO)C2CCCc3ccccc32)c1 (stereo not drawn) [CBK305195] | 83% |
| Cc1cc(C)n2nc(C(=O)N3CCC(C)CC3c3ccco3)nc2n1 (stereo not drawn) [CBK305196] | 84.8% |
| CC(C)(C)c1n[nH]c(C2CN(C(=O)CCCn3cccn3)CCO2)n1 (stereo not drawn) [CBK305198] | 88.1% |
| Cn1ccc(C(=O)N2CCOC(c3nc(C(C)(C)C)n[nH]3)C2)cc1=O (stereo not drawn) [CBK305201] | 106% |
| CCc1nc(C)c(C(C)N(C)CC(=O)NCc2ccco2)s1 (stereo not drawn) [CBK305203] | 86.6% |
| CC(C)(C)c1n[nH]c(C2CN(C(=O)CCc3ccco3)CCO2)n1 (stereo not drawn) [CBK305204] | 81.5% |
| CCn1ncc2c1CCCC2NC1CCN(CC(F)(F)F)C1=O (stereo not drawn) [CBK305206] | 89.5% |
| COCCn1c(SCc2c(C)nc3ccccn23)nc(C)c1C [CBK305212] | 80.1% |
| CCc1nnc(CN2CCCC(c3cc(C(N)=O)[nH]n3)C2)o1 (stereo not drawn) [CBK305213] | 74.5% |
| CC(CC(=O)N1CCOC(c2nc(C(C)(C)C)n[nH]2)C1)n1cccc1 (stereo not drawn) [CBK305214] | 82.8% |
| CN(c1ccccc1)C1CCN(c2nc3c(cnn3C)c(=O)[nH]2)CC1 [CBK305215] | 96.3% |
| COc1ncccc1CNC(=O)Nc1cccn(CC(F)(F)F)c1=O [CBK305216] | 113% |
| CN(C)c1cccc(C2CCCN2c2nc3c(cnn3C)c(=O)[nH]2)c1 (stereo not drawn) [CBK305220] | 78.6% |
| O=C(NCC(CO)Cc1ccccn1)c1ccc2cc[nH]c2c1 (stereo not drawn) [CBK305222] | 81.6% |
| O=C(NC1CCN(CC(F)(F)F)C1=O)c1cc(Cl)ccn1 (stereo not drawn) [CBK305223] | 98.6% |
| CCN1CCCC(NC(=O)COc2nn(C)c3nc(C)cc(C)c23)C1 (stereo not drawn) [CBK305224] | 113% |
| CN1CCCc2ccc(S(=O)(=O)Nc3nc4ncccn4n3)cc21 [CBK305226] | 85.7% |
| CCn1cnc(S(=O)(=O)N2CCC(OCc3ccccc3)CC2)c1 [CBK305228] | 73.1% |
| Cc1cc(NC(=O)CN2CCOC(CNc3cccnn3)C2)on1 (stereo not drawn) [CBK305231] | 109% |
| COc1cccc(CC(=O)N2CCOc3ncccc32)c1 [CBK305235] | 98.4% |
| CC1(C)CCCC1NC(=O)NCc1cccc(-c2nnc[nH]2)c1 (stereo not drawn) [CBK305236] | 83.9% |

| Structure (SMILES) | viability at 28.5 h, 10 µM |
| --- | --- |
| Cc1cc(NC(=O)CN(C)CCNC(=O)C2CCCC2)no1 [CBK305237] | 84.9% |
| Cc1cc(C(=O)CSc2nccc(C(F)(F)F)n2)c(C)n1C1CC1 [CBK305238] | 80% |
| CS(=O)(=O)N1CCCc2cc(-c3csc(-c4cnccn4)n3)ccc21 [CBK305239] | 95.4% |
| Cc1cc(C2CCCN(C(=O)CC3OCCc4sccc43)C2)n[nH]1 (stereo not drawn) [CBK305241] | 94.3% |
| Cc1ccc(C(=O)NC2CCN(C(=O)Nc3cc(Cl)ccc3F)CC2)s1 [CBK305243] | 88.8% |
| Cc1nn(C)c(Cl)c1CN1CCOC(c2ccccc2)C1 (stereo not drawn) [CBK305244] | 83.2% |
| Cc1nc2ccccc2n1CC(=O)N(Cc1cccnc1)C1CC1 [CBK305248] | 109% |
| Cc1cc(O)nc(C(C)N2CCN(Cc3noc(C(C)(C)C)n3)CC2)n1 (stereo not drawn) [CBK305249] | 95.4% |
| CCn1c(CN2CCCC2c2noc(C)n2)nc2cc(F)ccc21 (stereo not drawn) [CBK305250] | 55.9% |
| O=C(CN1CC(O)CC1c1cccc(C(F)(F)F)c1)NCc1cccs1 (stereo not drawn) [CBK305253] | 82.6% |
| Cc1nc(-c2ccc(NCC(O)c3ccco3)nc2)[nH]c(=O)c1C (stereo not drawn) [CBK305254] | 94.6% |
| Cc1cccn2c(=O)cc(CN3CCc4c(nc(C5CC5)n4C)C3)nc12 [CBK305256] | 99.2% |
| CC(C)(C)CC(=O)NS(=O)(=O)c1cccc(-c2nnco2)c1 [CBK305258] | 78% |
| Cc1cccc(CN2CCC(NC(=O)NCc3ccn(C)c3)CC2)c1 [CBK305259] | 105% |
| Cc1ccn(-c2ccc(N3CCC4(CC3)OCCO4)nn2)n1 [CBK305263] | 91.5% |
| O=C1C(n2c(=O)[nH]c3ccccc3c2=O)CCN1CC(F)(F)F (stereo not drawn) [CBK305264] | 104% |
| COCCNC(=O)CN(C)c1cnc2ccccc2n1 [CBK305265] | 89.2% |
| Cc1cc(C)n(CC(=O)N2CCCCC2C(=O)O)n1 (stereo not drawn) [CBK305266] | 91.3% |
| O=C(CC1CCCO1)NS(=O)(=O)c1cccc(-c2nnco2)c1 (stereo not drawn) [CBK305267] | 94.3% |
| N#CC1(NC(=O)CN2CCOC(Cn3cccn3)C2)CCCCC1 (stereo not drawn) [CBK305268] | 87.2% |
| Cc1nc(CNC(=O)c2nn(-c3cccc(C(C)C)c3)cc2O)no1 [CBK305269] | 89% |

From PMC12040169 (PLOS Biology, 2025)
